Assay results published in patent publication US20220295791A1, “METHODS FOR VIRAL INACTIVATION BY ENVIRONMENTALLY COMPATIBLE DETERGENTS” (Eli Lilly and Company, priority 2019, published 2022).

Tests used:
[1] = test system: enveloped viral inactivation; settings: under a diverse set of experimental conditions; cited from earlier work
XMuLV = type: cell-based, Xenotropic Murine Leukemiavirus

Molecule | enveloped viral inactivation [1] | XMuLV inactivation (XMuLV)
Triton X-100 | greater than 4 logs | –
CC(O)CO (centres unmarked) [monopropylene glycol] | – | not inactivate XMuLV
